Measured values as given in ChEMBL document CHEMBL1135794, “Looking for selectivity among cytochrome P450s inhibitors” (J Med Chem, 2002).

Tests used:
[1] = biological target: T1, Steroid 17-alpha-hydroxylase/17,20 lyase (Homo sapiens, UniProt P05093); assay: Inhibition of Cytochrome P450 17
T1 sequence (P05093 whole entry): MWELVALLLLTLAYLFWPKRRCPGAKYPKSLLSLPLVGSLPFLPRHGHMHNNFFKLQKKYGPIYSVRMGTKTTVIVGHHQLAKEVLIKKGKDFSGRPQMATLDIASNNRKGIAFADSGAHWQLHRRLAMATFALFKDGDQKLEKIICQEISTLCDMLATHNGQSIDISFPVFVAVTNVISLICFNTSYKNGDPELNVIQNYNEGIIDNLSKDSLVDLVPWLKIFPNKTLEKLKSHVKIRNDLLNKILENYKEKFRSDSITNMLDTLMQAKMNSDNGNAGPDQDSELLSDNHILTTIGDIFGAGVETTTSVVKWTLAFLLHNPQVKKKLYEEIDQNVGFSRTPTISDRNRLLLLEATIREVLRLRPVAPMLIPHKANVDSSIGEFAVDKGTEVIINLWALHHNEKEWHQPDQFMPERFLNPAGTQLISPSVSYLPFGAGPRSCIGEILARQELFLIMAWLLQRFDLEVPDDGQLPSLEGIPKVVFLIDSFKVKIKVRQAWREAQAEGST

[2] = biological target: T1, Steroid 17-alpha-hydroxylase/17,20 lyase; assay: Inhibition of Cytochrome P450 17; Inactive

Row | Inhibition [1] [nM] | IA [2] | Compound
1 | 42 |  | O=c1c2ccccc2oc2c(Br)ccc(Cn3ccnc3)c12
2 |  | Not Active | N#Cc1ccc(Cn2ccnc2)c2oc3ccccc3c(=O)c12
